Where a name gives a salt, the structure may show the parent alone. Read-outs that look alike come from different tables or passages of the source.

For assay [1], the target named is T1, ALDH1A1 enzyme (Homo sapiens, UniProt P00352).
T1 sequence (P00352 1-501): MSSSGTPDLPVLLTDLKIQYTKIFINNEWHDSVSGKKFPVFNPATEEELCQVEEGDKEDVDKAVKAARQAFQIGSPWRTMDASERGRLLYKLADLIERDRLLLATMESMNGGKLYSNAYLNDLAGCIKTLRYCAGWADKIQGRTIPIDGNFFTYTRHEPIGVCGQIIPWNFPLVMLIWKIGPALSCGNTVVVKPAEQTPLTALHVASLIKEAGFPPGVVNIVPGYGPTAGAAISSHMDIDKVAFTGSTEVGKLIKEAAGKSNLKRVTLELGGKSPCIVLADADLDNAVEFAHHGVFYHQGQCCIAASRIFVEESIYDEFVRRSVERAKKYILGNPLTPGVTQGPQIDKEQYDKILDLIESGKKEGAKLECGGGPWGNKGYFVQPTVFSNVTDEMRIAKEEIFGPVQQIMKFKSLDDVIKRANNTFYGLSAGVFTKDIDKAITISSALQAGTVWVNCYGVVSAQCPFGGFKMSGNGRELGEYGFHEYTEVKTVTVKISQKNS
Description: ALDH1A1 enzymatic assay (in vitro). Type of assay: biochemical. The gist of the method: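 ALDH1A1 (20 nM final) in 100 mM HEPES pH 7.5, 0.01% Tween 20 was preincubated 15 min at RT with compound (968 pM–57.2 μM final), then started with 1 mM NAD+ and 80 μM propionaldehyde. NADH fluorescence (ex 340/em 450 nm) followed kinetically for 10 min; change normalized to no-inhibitor and no-enzyme controls for percent inhibition and curve fitting.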

For assay [2], the system named is MIA PaCa-2 cells. Put plainly: MIA PaCa2 cell-based assay (1,536-well high-content imaging ALDEFLUOR assay). As to conditions: Homo sapiens, 0.5 h, ALDEFLUOR BAAA substrate 500 nM, 30 minutes. The arrangement: species or system human. The gist of the method: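 MIA PaCa-2 cells (1,000/well), plated overnight, given BAAA substrate (500 nM) plus Hoechst 33342 (0.5 nM), then compound (16-point, 1.4 nM–47.8 μM final; 0.5% DMSO). After 30 min at 37° C, ALDH activity imaged by high-content microscopy as BAA-retaining (FITC) cells versus Hoechst-stained nuclei.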

[3] abbreviates: ALDH1A1 enzyme 20 nM, NAD+ 1 mM, propionaldehyde 80 μM, read-out: ALDH1A1 IC50.

For the molecule `CS(=O)(=O)C1CCN(C(=O)c2cnc3ccc(Cl)cc3c2N2CCC(C#N)(c3ccccc3)CC2)CC1` [Cpd. 310, 1-(6-chloro-3-(4-(methylsulfonyl)piperidine-1-carbonyl)quinolin-4-yl)-4-phenylpiperidine-4-carbonitrile], the concentration for half-maximal inhibition (IC50) in assay [1] (setting [3]) and in assay [2] was below 0.5 µM in each case.
As for `CS(=O)(=O)N1CCN(C(=O)c2cnc3cc(F)c(F)cc3c2N2CCC3(CC2)OCCO3)CC1` [Example 132, (6,7-difluoro-4-(1,4-dioxa-8-azaspiro[4.5]decan-8-yl)quinolin-3-yl)(4-(methylsulfonyl)piperazin-1-yl)methanone], the results for the IC50 in assay [1] (setting [3]) and in assay [2] were below 0.5 µM and 1 to 10 µM, respectively.
In the case of `N#CC1(c2ccc(Cl)cc2)CCN(c2c(C(=O)N3CCN(C(=O)C4CC4)CC3)cnc3ccc(F)cc23)CC1` [Example 267, 4-(4-chlorophenyl)-1-(3-(4-(cyclopropanecarbonyl)piperazine-1-carbonyl)-6-fluoroquinolin-4-yl)piperidine-4-carbonitrile], the 50% inhibitory concentration (IC50) in assay [1] (setting [3]) is below 0.5 µM; in assay [2], 1 to 10 µM.
For `COc1ccc2c(N3CCC(C)(C#N)CC3)c(C(=O)N3CCN(C(C)=O)CC3)cnc2c1` [Example 104, 1-(3-(4-acetylpiperazine-1-carbonyl)-7-methoxyquinolin-4-yl)-4-methylpiperidine-4-carbonitrile], the IC50 in assay [1] (setting [3]) was below 0.5 µM; in assay [2], above 10 µM.
Consider `COc1cc2ncc(C(=O)N3CCN(S(C)(=O)=O)CC3)c(N3CCC(C)(C#N)CC3)c2cc1OC` [Example 113, 1-(6,7-dimethoxy-3-(4-(methylsulfonyl)piperazine-1-carbonyl)quinolin-4-yl)-4-methylpiperidine-4-carbonitrile], for which the IC50 in assay [1] (setting [3]) was below 0.5 µM; in assay [2] it was 1 to 10 µM.
For `N#CC1(c2ccc(-c3c(C(=O)N4CCC(O)CC4)cnc4ccc(F)cc34)cc2)CC1` [Cpd. 337, 1-(4-(6-fluoro-3-(4-hydroxypiperidine-1-carbonyl)quinolin-4-yl)phenyl)cyclopropane-1-carbonitrile], the concentration for half-maximal inhibition (IC50) in assay [1] (setting [3]) was below 0.5 µM; in assay [2], 1 to 10 µM.
For `COc1ccc2ncc(C(=O)N3CCN(C(=O)C4CC4)CC3)c(N3CCN(C(C)=O)CC3)c2c1` [Example 23, 1-(4-(3-(4-(cyclopropanecarbonyl)piperazine-1-carbonyl)-6-methoxyquinolin-4-yl)piperazin-1-yl)ethanone] the same measures were above 10 µM and above 10 µM.
With `CC(=O)C1(c2ccccc2)CCN(c2c(C(=O)N3CCN(S(=O)(=O)N(C)C)CC3)cnc3ccc(F)cc23)CC1` [Example 268, 4-(4-(4-acetyl-4-phenylpiperidin-1-yl)-6-fluoroquinoline-3-carbonyl)-N,N-dimethylpiperazine-1-sulfonamide], the IC50 in assay [1] (setting [3]) and in assay [2] was below 0.5 µM each time.
Take `O=C(c1cnc2ccc(F)cc2c1N1CCC(O)(c2ccccc2)CC1)N1CCN(C(=O)C2CC2)CC1` [Example 291, (4-(cyclopropanecarbonyl)piperazin-1-yl)(6-fluoro-4-(4-hydroxy-4-phenylpiperidin-1-yl)quinolin-3-yl)methanone]: the results for the concentration for half-maximal inhibition (IC50) in assay [1] (setting [3]) and in assay [2] were below 0.5 µM and above 10 µM, respectively.
For the molecule `CS(=O)(=O)C1CCN(C(=O)c2cnc3ccc(F)cc3c2N2CCC(C#N)(c3ccccc3)CC2)CC1` [Example 269, 1-(6-fluoro-3-(4-(methylsulfonyl)piperidine-1-carbonyl)quinolin-4-yl)-4-phenylpiperidine-4-carbonitrile], the IC50 in assay [1] (setting [3]) and in assay [2] was below 0.5 µM each time.
As for `COc1ccc2ncc(C(=O)N3CCS(=O)(=O)CC3)c(N3CCC4(CC3)OCCO4)c2c1` [Example 36, (1,1-dioxidothiomorpholino)(6-methoxy-4-(1,4-dioxa-8-azaspiro[4.5]decan-8-yl)quinolin-3-yl)methanone], the concentration for half-maximal inhibition (IC50) in assay [1] (setting [3]) was below 0.5 µM; in assay [2], above 10 µM.
`CCS(=O)(=O)N1CCN(C(=O)c2cnc3cc(F)c(F)cc3c2N2CCC3(CC2)OCCO3)CC1` [Example 171, (6,7-difluoro-4-(1,4-dioxa-8-azaspiro[4.5]decan-8-yl)quinolin-3-yl)(4-(ethylsulfonyl)piperazin-1-yl)methanone]: the 50% inhibitory concentration (IC50) in assay [1] (setting [3]) was below 0.5 µM; in assay [2], 1 to 10 µM.
As to `COc1ccc2ncc(C(=O)N3CCC(OC)CC3)c(N3CCC(OC)CC3)c2c1` [Example 4, (6-methoxy-4-(4-methoxypiperidin-1-yl)quinolin-3-yl)(4-methoxypiperidin-1-yl)methanone, TFA], the IC50 in assay [1] (setting [3]) is below 0.5 µM; in assay [2] it was 1 to 10 µM.
Consider `CCS(=O)(=O)N1CCN(C(=O)c2cnc3cc(F)c(F)cc3c2N2CCC(C)(C#N)CC2)CC1` [Example 176, 1-(3-(4-(ethylsulfonyl)piperazine-1-carbonyl)-6,7-difluoroquinolin-4-yl)-4-methylpiperidine-4-carbonitrile], for which the IC50 in assay [1] (setting [3]) is below 0.5 µM; in assay [2] it was 1 to 10 µM.
For `CS(=O)(=O)N1CCN(C(=O)c2cnc3ccc(F)cc3c2N2CCN(S(=O)(=O)C3CC3)CC2)CC1` [Example 252, (4-(4-(cyclopropylsulfonyl)piperazin-1-yl)-6-fluoroquinolin-3-yl)(4-(methylsulfonyl)piperazin-1-yl)methanone] the same measures were below 0.5 µM and above 10 µM.
For `C[C@@H]1CN(C(=O)C2CC2)CCN1C(=O)c1cnc2ccc(F)cc2c1N1CCC(C)(C#N)CC1` [Example 239, (R)-1-(3-(4-(cyclopropanecarbonyl)-2-methylpiperazine-1-carbonyl)-6-fluoroquinolin-4-yl)-4-methylpiperidine-4-carbonitrile] the same measures were below 0.5 µM and 1 to 10 µM.
Consider `COc1ccc2ncc(C(=O)N3CCN(C(C)C)CC3)c(N3CCC4(CC3)OCCO4)c2c1` [Example 8, (4-isopropylpiperazin-1-yl)(6-methoxy-4-(1,4-dioxa-8-azaspiro[4.5]decan-8-yl)quinolin-3-yl)methanone, TFA], for which the half-maximal inhibitory concentration (IC50) in assay [1] (setting [3]) was 1 to 10 µM; in assay [2] it was above 10 µM.
For the molecule `O=C(c1cnc2ccc(F)cc2c1N1CCC2(CC1)COC2)N1CCN(C(=O)C2CC2)CC1` [Example 68, (4-(cyclopropanecarbonyl)piperazin-1-yl)(6-fluoro-4-(2-oxa-7-azaspiro[3.5]nonan-7-yl)quinolin-3-yl)methanone], the IC50 was 1 to 10 µM in assay [1] (setting [3]) and above 10 µM in assay [2].
`CS(=O)(=O)N1CCN(C(=O)c2cnc3ccc(F)cc3c2N2CCC(C#N)(CC3CC3)CC2)CC1` [Example 243, 4-(cyclopropylmethyl)-1-(6-fluoro-3-(4-(methylsulfonyl)piperazine-1-carbonyl)quinolin-4-yl)piperidine-4-carbonitrile]: the IC50 in assay [1] (setting [3]) and in assay [2] was below 0.5 µM in each case.
Turning to `COc1ccc2ncc(C(=O)N3CCC4(CC3)OCCO4)c(N3CCC4(CC3)OCCO4)c2c1` [Example 37, (6-methoxy-4-(1,4-dioxa-8-azaspiro[4.5]decan-8-yl)quinolin-3-yl)(1,4-dioxa-8-azaspiro[4.5]decan-8-yl)methanone], the half-inhibitory concentration (IC50) in assay [1] was below 0.5 µM; in assay [2], 0.5 to 1 µM.
As for `COc1ccc2c(N3CCC4(CC3)OCCO4)c(C(=O)N3CCN(S(C)(=O)=O)CC3)cnc2c1` [Example 129, (7-methoxy-4-(1,4-dioxa-8-azaspiro[4.5]decan-8-yl)quinolin-3-yl)(4-(methylsulfonyl)piperazin-1-yl)methanone], the IC50 in assay [1] (setting [3]) is below 0.5 µM; in assay [2] it was 1 to 10 µM.
For `CC1(C#N)CCN(c2c(C(=O)N3CCN(S(=O)(=O)N4CCCC4)CC3)cnc3ccc(F)cc23)CC1` [Example 158, 1-(6-fluoro-3-(4-(pyrrolidin-1-ylsulfonyl)piperazine-1-carbonyl)quinolin-4-yl)-4-methylpiperidine-4-carbonitrile] the same measures were 1 to 10 µM and above 10 µM.
In the case of `COc1ccc2ncc(C(=O)N3CCN(C(=O)C4CC4)CC3)c(N3CCC(C(F)(F)F)CC3)c2c1` [Example 28, (4-(cyclopropanecarbonyl)piperazin-1-yl)(6-methoxy-4-(4-(trifluoromethyl)piperidin-1-yl)quinolin-3-yl)methanone], the IC50 in assay [1] (setting [3]) is 1 to 10 µM; in assay [2] it was above 10 µM.
As to `Cc1ccc(C2(C#N)CCN(c3c(C(=O)N4CCN(S(C)(=O)=O)CC4)cnc4ccc(F)cc34)CC2)c(F)c1` [Example 277, 1-(6-fluoro-3-(4-(methylsulfonyl)piperazine-1-carbonyl)quinolin-4-yl)-4-(2-fluoro-4-methylphenyl)piperidine-4-carbonitrile], the IC50 in assay [1] (setting [3]) and in assay [2] was below 0.5 µM throughout.

Values taken from patent US11795177B2, “Substituted quinoline analogs as aldehyde dehydrogenase 1A1 (ALDH1A1) inhibitors” (THE UNITED STATES OF AMERICA, AS REPRESENTED BY THE …, priority 2017, dated 2023).
